Among the data in PubChem BioAssay (NCI) are GI50 and TGI values, retold here.

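A five-concentration, 48-hour dose response in 96-well plates underlies each endpoint, interpolated linearly between surrounding concentrations. GI50: concentration for 50% inhibition of growth. TGI marks complete inhibition of growth.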

The subject of the first experiment is KM12 colon. The experiment in a line: growth of human tumour cells (NCI), 48 h.
Take `CN(C)CCNc1nc2ccccc2c2[nH]c3ccccc3c12`: the GI50 was 0.328 µM and the TGI is 2.92 µM.

On to `OCCNCO`, for which the TGI is above 100 µM.

For the molecule `Clc1cccc(NC=Nc2ccc(-c3nc4ccccc4s3)cc2)c1`, the GI50 was 13.7 µM and the TGI was determined as 38.3 µM.

Regarding `O=C1c2ccccc2-c2c1c1cc3c(cc1c(=O)n2CCCCl)OCO3`, the GI50 was 24.1 µM and the TGI was above 100 µM.

With `COc1nc2c(cc1S(=O)(=O)c1ccccc1)CCc1c-2cnn1-c1ccccc1Cl`, the GI50 was 4.49 µM and the TGI was above 100 µM.

`CC(C)(C)C1=NC(S)NC(CCC(=O)Nc2ccccc2[N+](=O)[O-])=C1` (stereo not drawn): the TGI is above 100 µM.

The test system of another experiment is MALME-3M melanoma. The experiment in a line: growth of human tumour cells (NCI), 48 h.
As for `NC1(CCCCCCCCCCC(=O)O)CNCCNCCNCCNC1`, the TGI is above 100 µM.

On to `NNC(=O)c1cnn(-c2ccnc3c(C(F)(F)F)cccc23)c1N`, for which the GI50 is above 100 µM and the TGI is above 100 µM.

`CC(=O)OCCc1cccnc1/C=N/O`: the TGI was above 100 µM.

`CCC1CCC2CCCC(C)N12` (stereo not drawn) yielded a TGI above 100 µM.

The molecule `O=C1CC[C@H]2CNC(=O)C[C@H]2C1` had a TGI above 100 µM.

In the case of `COc1ccc(CNC(=O)COc2ccc(/C=N/Nc3nc4ccccc4s3)cc2)cc1`, the GI50 was 1.55 µM and the TGI was determined as 3.89 µM.

`CCOC(=O)CCCO`: the TGI is above 100 µM.

Consider `CC1=CCCC(OC(N)=O)C1` (stereo not drawn), for which the TGI is above 100 µM.

Molecule `c1ccc(-c2nnc(-c3nn(-c4ccccc4)c4nc5ccccc5nc34)o2)cc1` yielded a TGI above 100 µM.

Molecule `O=[N+]([O-])c1ccc(NSc2ccccc2)cc1` had a TGI above 100 µM.

Regarding `COc1ccc(N=Cc2cc(OC)c(OC)c(OC)c2)cc1`, the TGI is above 100 µM.

Molecule `COc1cc([C@@H]2c3cc4c(cc3[C@@H](NC(=O)c3cccc([N+](=O)[O-])c3)C3COC(=O)[C@@H]32)OCO4)cc(OC)c1O` (stereo partly drawn) displayed a TGI of 4.77 µM.

For `O=c1[nH]c(=O)n(C2CC(O)C(CO)O2)cc1C#Cc1c(F)c(F)c(F)c(F)c1F` (stereo not drawn), the TGI was above 100 µM.

`COC(=O)C(CC(=O)c1cc2c(cc1I)OCO2)Cc1cc(OC)c(OC)c(OC)c1I` (stereo not drawn) registered a TGI above 100 µM.

In the case of `S=C1NCCN1C1=Nc2ccccc2CO1`, the GI50 was above 100 µM and the TGI is above 100 µM.

Turning to `OCc1c(-c2cccc3ccccc23)sc(-c2cccc3ccccc23)c1CO`, the TGI was found to be 24.5 µM.

In turn, `CC(C)(C)C1=NC(S)NC(CCC(=O)Nc2ccccc2[N+](=O)[O-])=C1` (stereo not drawn) returned a TGI above 100 µM.

The subject of a further experiment is NCI-H226 lung. The experiment in a line: growth of human tumour cells (NCI), 48 h.
For `NNC(=O)c1cnn(-c2ccnc3c(C(F)(F)F)cccc23)c1N`, the GI50 was above 100 µM and the TGI was above 100 µM.

For `CC(=O)OCCc1cccnc1/C=N/O`, the TGI was above 100 µM.

In turn, `CCC1CCC2CCCC(C)N12` (stereo not drawn) displayed a TGI above 100 µM.

`c1ccc(-c2nnc(-c3nn(-c4ccccc4)c4nc5ccccc5nc34)o2)cc1` registered a TGI of 99.5 µM.

Consider `O=C(O)/C=C/C(=O)Nc1ncn[nH]1`, for which the TGI was above 100 µM.

In turn, `COc1cc([C@@H]2c3cc4c(cc3[C@@H](NC(=O)c3cccc([N+](=O)[O-])c3)C3COC(=O)[C@@H]32)OCO4)cc(OC)c1O` (stereo partly drawn) gave a TGI of 1.02 µM.

As to `COC(=O)[C@@H](C)C[C@H](Cc1ccccc1)NC(=O)c1nc([C@@H](C[C@H](C(C)C)N(C)C(=O)[C@@H](NC(=O)[C@H]2CCCN2C)C(C)C)OC(C)=O)sc1C`, the GI50 is 0.16 µM and the TGI was above 25 µM.

`O=c1[nH]c(=O)n(C2CC(O)C(CO)O2)cc1C#Cc1c(F)c(F)c(F)c(F)c1F` (stereo not drawn): the TGI is above 100 µM.

Molecule `O=C(O)Cc1c[nH]c2ccc(F)cc12` came in with a TGI above 100 µM.

`COC(=O)C(CC(=O)c1cc2c(cc1I)OCO2)Cc1cc(OC)c(OC)c(OC)c1I` (stereo not drawn) returned a TGI above 100 µM.

Take `S=C1NCCN1C1=Nc2ccccc2CO1`: the GI50 was above 100 µM and the TGI is above 100 µM.

Regarding `OCc1c(-c2cccc3ccccc23)sc(-c2cccc3ccccc23)c1CO`, the TGI amounted to 32.9 µM.

As to `CN(C)CCNc1nc2ccccc2c2[nH]c3ccccc3c12`, the GI50 is 0.587 µM and the TGI turned out to be 4.74 µM.

`OCCNCO` yielded a TGI above 100 µM.

In the case of `COc1nc2c(cc1S(=O)(=O)c1ccccc1)CCc1c-2cnn1-c1ccccc1Cl`, the GI50 was 4.91 µM and the TGI was above 100 µM.

`CC(C)(C)C1=NC(S)NC(CCC(=O)Nc2ccccc2[N+](=O)[O-])=C1` (stereo not drawn) returned a TGI above 100 µM.

The subject of a further experiment is OVCAR-4 ovarian. In words: growth of human tumour cells (NCI), 48 h.
Molecule `NC1(CCCCCCCCCCC(=O)O)CNCCNCCNCCNC1` returned a TGI above 100 µM.

Take `NNC(=O)c1cnn(-c2ccnc3c(C(F)(F)F)cccc23)c1N`: the GI50 is above 100 µM and the TGI is above 100 µM.

Molecule `CC(=O)OCCc1cccnc1/C=N/O` gave a TGI above 100 µM.

`CCC1CCC2CCCC(C)N12` (stereo not drawn): the TGI was above 100 µM.

Take `O=C1CC[C@H]2CNC(=O)C[C@H]2C1`: the TGI is above 100 µM.

`COc1ccc(CNC(=O)COc2ccc(/C=N/Nc3nc4ccccc4s3)cc2)cc1`: the GI50 is 1.56 µM and the TGI came out at 5 µM.

As for `CC1=CCCC(OC(N)=O)C1` (stereo not drawn), the TGI was above 100 µM.

In the case of `c1ccc(-c2nnc(-c3nn(-c4ccccc4)c4nc5ccccc5nc34)o2)cc1`, the TGI was above 100 µM.

In turn, `O=C(O)/C=C/C(=O)Nc1ncn[nH]1` yielded a TGI above 100 µM.

`COc1ccc(N=Cc2cc(OC)c(OC)c(OC)c2)cc1`: the TGI was above 100 µM.

In turn, `COc1cc([C@@H]2c3cc4c(cc3[C@@H](NC(=O)c3cccc([N+](=O)[O-])c3)C3COC(=O)[C@@H]32)OCO4)cc(OC)c1O` (stereo partly drawn) displayed a TGI above 89.5 µM.

For the molecule `COC(=O)[C@@H](C)C[C@H](Cc1ccccc1)NC(=O)c1nc([C@@H](C[C@H](C(C)C)N(C)C(=O)[C@@H](NC(=O)[C@H]2CCCN2C)C(C)C)OC(C)=O)sc1C`, the GI50 was 0.542 µM and the TGI was above 25 µM.

`O=c1[nH]c(=O)n(C2CC(O)C(CO)O2)cc1C#Cc1c(F)c(F)c(F)c(F)c1F` (stereo not drawn) had a TGI above 100 µM.

Molecule `O=C(O)Cc1c[nH]c2ccc(F)cc12` came in with a TGI above 100 µM.
